# According to ChEMBL document CHEMBL4842340, “Development of Cagrilintide, a Long-Acting Amylin Analogue” (J Med Chem, 2021):
# *1 amine or outer side, *2 acyl side, *3 side chain or, on linkers, in order; H or OH if unused. Where a SMILES comes first, the peptide text is derived from it. Bridges are numbered along the chain shown (N, C = ends). [ ]: non-standard residue; d: D form. The star is where a group is joined. X1 = O=C(NC(=O)[C@H](Cc1cnc[nH]1)N[*:1])[C@@H](Cc1cnc[nH]1)C(=O)[*:2]; C20 diacid = O=C(O)CCCCCCCCCCCCCCCCCCC(=O)*; γGlu = O=C(O)[C@H](CCC(=O)[*:2])N[*:1]; AEEA = NCCOCCOCC(=O)O
# Columns and labels:
# [1] = Solubility of the compound in lactate at pH 3 by UPLC analysis; format: physicochemical; details: lactate buffer
# [2] = Solubility of the compound in bis-tris propane at pH 6.5 by UPLC analysis; format: physicochemical; details: bis-tris propane buffer
# [3] = Solubility of the compound in bis-tris propane at pH 7 by UPLC analysis; format: physicochemical; details: bis-tris propane buffer
# [4] = target: Insulin (Homo sapiens) (UniProt P01308); assay: Effect on insulin (unknown origin) amyloid fibril formation assessed as lag time in glycyl-glycine buffer at pH 4 measured after 45 hrs by thioflavin-T fluorescence assay
# Sequence of Insulin (Homo sapiens) (P01308 whole entry): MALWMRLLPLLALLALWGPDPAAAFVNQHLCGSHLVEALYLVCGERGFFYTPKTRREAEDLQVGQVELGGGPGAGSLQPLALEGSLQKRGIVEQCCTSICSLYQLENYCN
# [5] = Agonist activity at human AMY3R (CT+RAMP3) expressed in Hollex1 cells incubated for 3 hrs by luminescence assay; format: cell-based; details: Hollex1, 3 h
# [6] = Agonist activity at human calcitonin receptor expressed in BHK570 cells assessed as increase in intracellular cAMP concentration incubated for 3 hrs in absence of albumin by CRE luciferase reporter gene assay; format: cell-based; details: BHK570, 3 h
# [7] = target: Insulin (Homo sapiens) (UniProt P01308); assay: Effect on insulin (unknown origin) amyloid fibril formation assessed as peptide recovery in glycyl-glycine buffer at pH 4 measured after 45 hrs by thioflavin-T fluorescence assay relative to control; set-up: concentration or dose not given beside the values
# [8] = species: Homo sapiens; assay: Ratio of EC50 for human calcitonin receptor expressed in BHK570 cells to EC50 for human AMY3R (CT+RAMP3) expressed in Hollex1 cells; format: cell-based
# [9] = species: Rattus norvegicus; assay: Ratio of EC50 for rat calcitonin receptor expressed in BHK-13 cells to EC50 for rat AMY3R (CT+RAMP3) expressed in tk-ts13 cells; format: cell-based
# [10] = Agonist activity at rat AMY3R (CT+RAMP3) expressed in tk-ts13 cells assessed as increase in intracellular cAMP level incuabted for 25 mins by CRE luciferase reporter gene assay; format: cell-based; details: tk-ts13, 25 min
# [11] = tested on: Rattus norvegicus; assay: Reduction in food intake in Sprague-Dawley rat at 3 nmol/kg, sc administered as single dose measured after 24 to 48 hrs relative to control; format: functional; set-up: scale not given: the % may be the effect or the level left; details: time 24-48 hrs
# [12] = Solubility of the compound in lactate at pH 4 by UPLC analysis; format: physicochemical; details: lactate buffer
# [13] = Solubility of the compound in lactate at pH 5 by UPLC analysis; format: physicochemical; details: lactate buffer
# [14] = Solubility of the compound in bis-tris propane at pH 6 by UPLC analysis; format: physicochemical; details: bis-tris propane buffer
# [15] = Agonist activity at rat calcitonin receptor expressed in BHK-13 cells assessed as increase in intracellular cAMP concentration incubated for 25 mins by CRE luciferase reporter gene assay; format: cell-based; details: BHK-13, 25 min
# [16] = tested on: Rattus norvegicus; assay: Reduction in food intake in Sprague-Dawley rat at 3 nmol/kg, sc administered as single dose measured upto 24 hrs relative to control; format: functional; set-up: scale not given: the % may be the effect or the level left; details: time hrs <=24
# [17] = Solubility of the compound in bis-tris propane at pH 7.5 by UPLC analysis; format: physicochemical; details: bis-tris propane buffer
# [18] = Solubility of the compound in bis-tris propane at pH 8 by UPLC analysis; format: physicochemical; details: bis-tris propane buffer
smiles,measurement,setting,value
CC(C)C[C@H](NC(=O)[C@H](CCCNC(=N)N)NC(=O)[C@H](CCC(N)=O)NC(=O)[C@@H](NC(=O)[C@H](C)NC(=O)[C@@H]1CSSC[C@H](NC(=O)[C@H](Cc2cnc[nH]2)NC(=O)CC[C@H](NC(=O)CCCCCCCCCCCCCCCCCCC(=O)O)C(=O)O)C(=O)N[C@@H](CC(N)=O)C(=O)N[C@@H]([C@@H](C)O)C(=O)N[C@@H](C)C(=O)N[C@@H]([C@@H](C)O)C(=O)N1)[C@@H](C)O)C(=O)N[C@@H](C)C(=O)N[C@@H](CCC(=O)O)C(=O)N[C@@H](Cc1ccccc1)C(=O)N[C@@H](CC(C)C)C(=O)N[C@@H](Cc1cnc[nH]1)C(=O)N[C@@H](CCCNC(=N)N)C(=O)N[C@@H](CO)C(=O)N[C@@H](CO)C(=O)N[C@@H](CC(N)=O)C(=O)N[C@@H](CC(N)=O)C(=O)N[C@@H](Cc1ccccc1)C(=O)NCC(=O)N[C@@H](C)C(=O)N1CCC[C@H]1C(=O)N[C@@H](CC(C)C)C(=O)N[C@@H](CO)C(=O)N[C@@H](CO)C(=O)N[C@H](C(=O)N[C@@H](CC(N)=O)C(=O)N[C@H](C(=O)NCC(=O)N[C@@H](CO)C(=O)N[C@@H](CC(N)=O)C(=O)N[C@H](C(=O)N[C@@H](Cc1ccc(O)cc1)C(N)=O)[C@@H](C)O)C(C)C)[C@@H](C)O ({C20 diacid-γGlu}-HCNTATCATQRLAEFLHRSSNNFGAPLSSTNVGSNTY-NH2; disulfide 2-7),solubility,[1],200 µM
same,solubility,[2],4 µM
same,solubility,[3],7 µM
same,TIME,[4],14 h
same,EC50,[5],0.107 nM
same,EC50,[6],0.218 nM
same,Activity,[7],0%
same,Ratio EC50,[8],2
CC[C@H](C)[C@H](NC(=O)[C@@H]1CCCN1C(=O)CNC(=O)[C@H](Cc1ccccc1)NC(=O)[C@H](CC(N)=O)NC(=O)[C@H](CC(N)=O)NC(=O)[C@H](CO)NC(=O)[C@H](CO)NC(=O)[C@H](Cc1cnc[nH]1)NC(=O)[C@H](Cc1cnc[nH]1)NC(=O)[C@H](CC(C)C)NC(=O)[C@H](Cc1ccccc1)NC(=O)[C@H](CCC(=O)O)NC(=O)[C@H](C)NC(=O)[C@H](CC(C)C)NC(=O)[C@H](CCCNC(=N)N)NC(=O)[C@H](CCC(N)=O)NC(=O)[C@@H](NC(=O)[C@H](C)NC(=O)[C@@H]1CSSC[C@H](NC(=O)[C@H](Cc2cnc[nH]2)NC(=O)[C@H](Cc2cnc[nH]2)C(=O)NC(=O)[C@H](Cc2cnc[nH]2)NC(=O)CC[C@H](NC(=O)CCCCCCCCCCCCCCCCCCC(=O)O)C(=O)O)C(=O)N[C@@H](CCCNC(=N)N)C(=O)N[C@@H]([C@@H](C)O)C(=O)N[C@@H](C)C(=O)N[C@@H]([C@@H](C)O)C(=O)N1)[C@@H](C)O)C(=O)N[C@@H](CC(C)C)C(=O)N1CCC[C@H]1C(=O)N1CCC[C@H]1C(=O)N[C@H](C(=O)N[C@@H](CC(N)=O)C(=O)N[C@H](C(=O)NCC(=O)N[C@@H](CO)C(=O)N[C@@H](CC(N)=O)C(=O)N[C@H](C(=O)N[C@@H](Cc1ccc(O)cc1)C(N)=O)[C@@H](C)O)C(C)C)[C@@H](C)O ({C20 diacid-γGlu}-[X1]HCRTATCATQRLAEFLHHSSNNFGPILPPTNVGSNTY-NH2; disulfide 3-8),Ratio EC50,[9],5
same,solubility,[1],200 µM
same,EC50,[10],0.261 nM
same,Activity,[11],5%
same,solubility,[12],200 µM
same,solubility,[13],200 µM
same,solubility,[14],200 µM
same,EC50,[15],1.29 nM
same,Activity,[16],26%
same,solubility,[2],57 µM
same,solubility,[3],2 µM
same,TIME,[4],3 h
same,EC50,[5],0.096 nM
same,EC50,[6],0.157 nM
same,Activity,[7],14%
same,Ratio EC50,[8],2
same,solubility,[17],1 µM
same,solubility,[18],3 µM
CC[C@H](C)[C@H](NC(=O)[C@@H]1CCCN1C(=O)CNC(=O)[C@H](Cc1ccccc1)NC(=O)[C@H](CC(N)=O)NC(=O)[C@H](C)NC(=O)[C@H](CO)NC(=O)[C@H](CO)NC(=O)[C@H](CCCNC(=N)N)NC(=O)[C@H](Cc1cnc[nH]1)NC(=O)[C@H](CC(C)C)NC(=O)[C@H](Cc1ccccc1)NC(=O)[C@H](CCC(=O)O)NC(=O)[C@H](C)NC(=O)[C@H](CC(C)C)NC(=O)[C@H](CCCNC(=N)N)NC(=O)[C@H](CCC(N)=O)NC(=O)[C@@H](NC(=O)[C@H](C)NC(=O)[C@@H]1CSSC[C@H](NC(=O)[C@H](CCCCN)NC(=O)[C@@H](CCCNC(=N)N)NC(=O)[C@@H](CCCNC(=N)N)NC(=O)COCCOCCNC(=O)COCCOCCNC(=O)CC[C@H](NC(=O)CCCCCCCCCCCCCCCCCCC(=O)O)C(=O)O)C(=O)N[C@@H](CC(N)=O)C(=O)N[C@@H]([C@@H](C)O)C(=O)N[C@@H](C)C(=O)N[C@@H]([C@@H](C)O)C(=O)N1)[C@@H](C)O)C(=O)N[C@@H](CC(C)C)C(=O)N1CCC[C@H]1C(=O)N1CCC[C@H]1C(=O)N[C@H](C(=O)N[C@@H](CC(N)=O)C(=O)N[C@H](C(=O)NCC(=O)N[C@@H](CO)C(=O)N[C@@H](CO)C(=O)N[C@H](C(=O)N[C@@H](Cc1ccc(O)cc1)C(N)=O)[C@@H](C)O)C(C)C)[C@@H](C)O ({C20 diacid-γGlu-AEEA-AEEA}-[dR][dR]KCNTATCATQRLAEFLHRSSANFGPILPPTNVGSSTY-NH2; disulfide 4-9),Ratio EC50,[9],19
same,solubility,[1],200 µM
same,EC50,[10],0.233 nM
same,Activity,[11],0%
same,solubility,[12],200 µM
same,solubility,[13],200 µM
same,solubility,[14],200 µM
same,EC50,[15],4.48 nM
same,Activity,[16],16%
same,solubility,[2],200 µM
same,solubility,[3],200 µM
same,TIME,[4],45 h
same,EC50,[5],0.14 nM
same,EC50,[6],1.08 nM
same,Activity,[7],94%
same,Ratio EC50,[8],8
same,solubility,[17],200 µM
same,solubility,[18],200 µM
CC[C@H](C)[C@H](NC(=O)[C@@H]1CCCN1C(=O)CNC(=O)[C@H](Cc1ccccc1)NC(=O)[C@H](CC(N)=O)NC(=O)[C@H](CC(N)=O)NC(=O)[C@H](CO)NC(=O)[C@H](CO)NC(=O)[C@H](Cc1cnc[nH]1)NC(=O)[C@H](Cc1cnc[nH]1)NC(=O)[C@H](CC(C)C)NC(=O)[C@H](Cc1ccccc1)NC(=O)[C@H](CCC(=O)O)NC(=O)[C@H](C)NC(=O)[C@H](CC(C)C)NC(=O)[C@H](CCCNC(=N)N)NC(=O)[C@H](CCC(N)=O)NC(=O)[C@@H](NC(=O)[C@H](C)NC(=O)[C@@H]1CSSC[C@H](NC(=O)[C@H](CCC(=O)O)NC(=O)CC[C@H](NC(=O)CCCCCCCCCCCCCCCCCCC(=O)O)C(=O)O)C(=O)N[C@@H](CC(N)=O)C(=O)N[C@@H]([C@@H](C)O)C(=O)N[C@@H](C)C(=O)N[C@@H]([C@@H](C)O)C(=O)N1)[C@@H](C)O)C(=O)N[C@@H](CC(C)C)C(=O)N1CCC[C@H]1C(=O)N1CCC[C@H]1C(=O)N[C@H](C(=O)N[C@@H](CC(N)=O)C(=O)N[C@H](C(=O)NCC(=O)N[C@@H](CO)C(=O)N[C@@H](CC(N)=O)C(=O)N[C@H](C(=O)N[C@@H](Cc1ccc(O)cc1)C(N)=O)[C@@H](C)O)C(C)C)[C@@H](C)O ({C20 diacid-γGlu}-ECNTATCATQRLAEFLHHSSNNFGPILPPTNVGSNTY-NH2; disulfide 2-7),solubility,[1],200 µM
same,Activity,[11],5%
same,solubility,[12],200 µM
same,solubility,[14],200 µM
same,Activity,[16],15%
same,solubility,[2],200 µM
same,solubility,[3],200 µM
same,TIME,[4],3 h
same,EC50,[5],0.377 nM
same,EC50,[6],0.657 nM
same,Activity,[7],0%
same,Ratio EC50,[8],2
same,solubility,[17],200 µM
same,solubility,[18],200 µM
CC[C@H](C)[C@H](NC(=O)[C@@H]1CCCN1C(=O)CNC(=O)[C@H](Cc1ccccc1)NC(=O)[C@H](CC(N)=O)NC(=O)[C@H](CC(N)=O)NC(=O)[C@H](CO)NC(=O)[C@H](CO)NC(=O)[C@H](Cc1c[nH]cn1)NC(=O)[C@H](CCCNC(=N)N)NC(=O)[C@H](CC(C)C)NC(=O)[C@H](Cc1ccccc1)NC(=O)[C@H](CCC(=O)O)NC(=O)[C@H](C)NC(=O)[C@H](CC(C)C)NC(=O)[C@H](CCCNC(=N)N)NC(=O)[C@H](CCC(N)=O)NC(=O)[C@@H](NC(=O)[C@H](C)NC(=O)[C@@H]1CSSC[C@H](NC(=O)[C@H](CCCCN)NC(=O)CC[C@H](NC(=O)CCCCCCCCCCCCCCCCCCC(=O)O)C(=O)O)C(=O)N[C@@H](CC(N)=O)C(=O)N[C@@H]([C@@H](C)O)C(=O)N[C@@H](C)C(=O)N[C@@H]([C@@H](C)O)C(=O)N1)[C@@H](C)O)C(=O)N[C@@H](CC(C)C)C(=O)N1CCC[C@H]1C(=O)N1CCC[C@H]1C(=O)N[C@H](C(=O)N[C@@H](CC(N)=O)C(=O)N[C@H](C(=O)NCC(=O)N[C@@H](CO)C(=O)N[C@@H](Cc1cnc[nH]1)C(=O)N[C@H](C(=O)N[C@@H](Cc1ccc(O)cc1)C(N)=O)[C@@H](C)O)C(C)C)[C@@H](C)O ({C20 diacid-γGlu}-KCNTATCATQRLAEFLRHSSNNFGPILPPTNVGSHTY-NH2; disulfide 2-7),Ratio EC50,[9],5
same,solubility,[1],200 µM
same,EC50,[10],0.49 nM
same,Activity,[11],0%
same,solubility,[12],200 µM
same,solubility,[13],200 µM
same,solubility,[14],200 µM
same,EC50,[15],2.54 nM
same,Activity,[16],17%
same,solubility,[2],200 µM
same,solubility,[3],200 µM
same,TIME,[4],45 h
same,EC50,[5],0.111 nM
same,EC50,[6],0.379 nM
same,Activity,[7],100%
same,Ratio EC50,[8],3
same,solubility,[18],80 µM
